System: NQO1 specific enzyme activity in BEAS-2B cells (marker for NRF2 activation)
Assay: Beas2B NQO1 MTT Assay
Format: cell-based
Conditions: Homo sapiens, NQO1 specific activity induction, 48 hours with compound
From the text: NAD(P)H:quinone oxidoreductase 1 (NQO1), also called DT diaphorase, is a homodimeric FAD-containing enzyme that catalyses obligatory NAD(P)H-dependent two-electron reductions of quinones and protects cells against the toxic and neoplastic effects of free radicals and reactive oxygen species arising from one-electron reductions. The transcription of NQO1 is finely regulated by NRF2, and thus NQO1 activity is a good marker for NRF2 activation. On day one, frozen BEAS-2B cells (ATCC) were thawed in a water bath, counted, and re-suspended at a concentration of 250,000 cells/mL. Fifty microliters of cells were plated in 384 well black clear-bottomed plates. Plates were incubated at 37° C., 5% CO2 overnight. On day two, plates were centrifuged and 50 nL of compound or controls were added to the cells. Plates were then incubated at 37° C., 5% CO2 for 48 hours. On day four, medium was aspirated from the plate and crude cell lysates were made by adding 13 uL of 1× Cell Signaling Technologies lysis buffer with 1 Complete, Mini, EDTA-free Protease Inhibitor Tablet (Roche) for each 10 mL of lysis buffer. After lysis plates were incubated for 20 minutes at room temperature. Two microliters of lysate were removed for use in Cell Titer Glo assay (Promega) and MTT cocktail was prepared (Prochaska et. al. 1998) for measurement of NQO1 activity. Fifty microliters of MTT cocktail was added to each well, plate was centrifuged, and analysed on an Envision plate reader (Perkin Elmer) using Absorbance 570 nm label for 30 minutes. Product formation was measured kinetically and the pEC50 of NQO1 specific activity induction was calculated by plotting the change in absorbance (Delta OD/min) versus the log of compound concentration followed by 3-parameter fitting.
EC50s <1 nM (+++++), EC50s 10 nM-1 nM (++++), EC50s 10-100 nM (+++), EC50s 100 nM-1 μM (++), EC50s 1-10 μM (+), EC50s >10 μM (−), or were not determined (ND).

In the case of `C[C@H]1Cc2ccc(C(F)(F)F)cc2S(=O)(=O)N(Cc2cccc(-n3ccc(C(=O)O)c3[C@@H]3C[C@H]3c3cn(C)nn3)c2)C1` [Example 4, 1-(3-(((S)-4-methyl-1,1-dioxido-8-(trifluoromethyl)-4,5-dihydrobenzo[f][1,2]thiazepin-2(3H)-yl)methyl)phenyl)-2-((1R,2R)-2-(1-methyl-1H-1,2,3-triazol-4-yl)cyclopropyl)-1H-pyrrole-3-carboxylic acid], the EC50 is reported as 0.001 to 0.01 µM.

`CCC[C@@H]1CCCCN1C(=O)c1cccc(-c2cccc(-n3ccc(C(=O)O)c3[C@@H]3C[C@H]3c3cn(C)nn3)c2)c1F` [Example 16, 1-(2′-fluoro-3′-((R)-2-propylpiperidine-1-carbonyl)-[1,1′-biphenyl]-3-yl)-2-((1R,2R)-2-(1-methyl-1H-1,2,3-triazol-4-yl)cyclopropyl)-1H-pyrrole-3-carboxylic acid] gave an EC50 of 0.001 to 0.01 µM.

In the case of `C[C@H](Oc1cccc(-c2cccc(-n3ccc(C(=O)O)c3[C@@H]3C[C@H]3c3cn(C)nn3)c2)c1)C1CCCCC1` [Example 18, 1-(3′-((S)-1-cyclohexylethoxy)-[1,1′-biphenyl]-3-yl)-2-((1R,2R)-2-(1-methyl-1H-1,2,3-triazol-4-yl)cyclopropyl)-1H-pyrrole-3-carboxylic acid], the EC50 is reported as 0.01 to 0.1 µM.

From patent publication US20200031820A1, “3-CARBOXYLIC ACID PYRROLES AS NRF2 REGULATORS” (GLSXOSMITHKLINE INTELLECTUAL PROPERTY DEVELOPMENT LIMITED, priority 2016, published 2020)
